*1 amine or outer side, *2 acyl side, *3 side chain or, on linkers, in order; H or OH if unused. Where a SMILES comes first, the peptide text is derived from it. Side-chain parts run from the residue outwards. The star is where a group is joined. C18 diacid = O=C(O)CCCCCCCCCCCCCCCCC(=O)*; γGlu = O=C(O)[C@H](CCC(=O)[*:2])N[*:1]; Isovaleryl = CC(C)CC(=O)*; AEEA = NCCOCCOCC(=O)O
Experiments:
[1] = molecular target: T1, Human Neuropeptide Y2 Receptor (Homo sapiens, UniProt P49146); assay: Radioligand binding competition assay (RLB)
T1 construct: purchased CHEMICON HTS066M
T1 sequence (P49146 1-381): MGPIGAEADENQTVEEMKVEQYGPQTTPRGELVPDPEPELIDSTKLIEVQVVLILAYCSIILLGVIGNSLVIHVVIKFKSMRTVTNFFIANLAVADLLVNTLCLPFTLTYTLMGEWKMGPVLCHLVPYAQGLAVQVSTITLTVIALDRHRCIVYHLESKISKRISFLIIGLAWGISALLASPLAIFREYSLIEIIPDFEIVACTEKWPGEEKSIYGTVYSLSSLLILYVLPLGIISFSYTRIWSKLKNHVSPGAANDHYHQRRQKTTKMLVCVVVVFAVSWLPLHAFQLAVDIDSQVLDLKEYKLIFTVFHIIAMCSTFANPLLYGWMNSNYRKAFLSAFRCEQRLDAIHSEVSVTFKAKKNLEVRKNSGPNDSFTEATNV
Method in brief: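 Filtration format; Y2R membrane prep 0.5 μg/well; buffer 50 mM HEPES/5 mM MgCl2/1 mM CaCl2/0.2% ovalbumin pH 7.4; 2 h RT, shaking. Harvest on PEI-soaked GF/C, ice-cold HEPES/500 mM NaCl washes, scintillation count. IC50 by nonlinear fit.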

[2] = molecular target: T1, Human Neuropeptide Y2 Receptor; assay: Activity (RLB) after incubation in solutions at different pH values; assay type: binding; conditions: apparent Ki of filtrate after 2 h in buffer
Method: The filtration RLB assay was carried out in 96-well plates in a final volume of 100 μl per well. Freeze-dried test peptides were dissolved in 100% dimethyl sulfoxide (DMSO) to stock solutions of 1 mM and serial dilutions were performed in assay buffer (50 mM HEPES, 5 mM MgCl2, 1 mM CaCl2), pH 7.4) containing 0.2% ovalbumin. […] Next, 80 μL membranes (HTS066M, ChemiSCREEN™ Human Neuropeptide Y2 Receptor Membrane Preparation, CHEMICON) were added to each well to give a final protein concentration of 0.5 μg/well. The plates were sealed and incubated at room temperature for 2 hours in a plate shaker set at 400 rpm. The incubation was stopped by vacuum filtration onto 0.5% poly-ethylene amine (PEI) presoaked GF/C filters using a 96-well FilterMate™ harvester (Perkin Elmer) followed by four washes with 300 μl/well ice-cold wash buffer (50 mM HEPES, 500 mM NaCl, pH7.4). Filter plates were then dried for 60 min at room temperature and the bottom of the plates was sealed with backing tape UniFilter-96. Finally, 50 μl/well scintillation counter cocktail (Microscint20, Packard) was added and the radioactivity was counted in the Packard TopCount NXT scintillation counter. IC50 values (the half maximal inhibitory concentration of the agonist) were calculated by nonlinear regression analysis of sigmoidal dose-response curves.
Peptides (as TFA salts) were weighed out in a filter unit (Mini-UniPrep Syringeless Filter 0.45 μm, Whatman), and 0.1 M sodium diphosphate buffer at pH 6.4 or 7.4, respectively, or 0.2 M TRIS buffer at pH 8.3 was added to achieve 10 mg/ml final concentration. The peptide was (partially) dissolved by shaking the filter unit horizontally at approx. 400 rpm for 2 hours at room temperature. The sample was filtered to remove any insoluble particles.

[3] = tested on: normal NMRI mice; assay: Effect on acute food intake in normal NMRI mice; assay type: in vivo; conditions: male NMRI mice, 10 nmol/kg subcutaneously once
Method in brief: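 Male NMRI mice acclimatized in an HM-2 real-time food intake monitoring system, fasted 6 h before dark phase. Single subcutaneous dose of 10 nmol/kg peptide given 1 h before dark; n=7-8. Food intake expressed as % of vehicle group (50 mM phosphate pH7, 5% Mannitol).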

[4] = Table 3, human 125I-PYY (1-36) 0.02 nM, Y2 receptor membranes, read-out: Ki
[5] = Table 8, from DMSO stock, read-out: hY2R RLB Ki (nM) DMSO
[6] = pH6.1-6.2, assumed 10 mg/ml, read-out: RLB 6 (pH6.1-6.2)

Compound | Ki [1, 4] [nM] | Ki [1, 5] [nM] | Ki [2, 6] [nM] | Ki ([2]; pH7.1-7.2, assumed 10 mg/ml, read-out: RLB 7 (pH7.1-7.2)) [nM] | Ki ([2]; pH8.1-8.2, assumed 10 mg/ml, read-out: RLB 8 (pH8.1-8.2)) [nM] | Acute Food Intake 24 h [% vehicle] [3] [% vehicle]
CC(C)CC(=O)N[C@@H](C)C(=O)N1CCC[C@H]1C(=O)N[C@@H](CCC(=O)O)C(=O)N[C@@H](CCCCNC(=O)COCCOCCNC(=O)COCCOCCNC(=O)CC[C@H](NC(=O)CCCCCCCCCCCCCCCCC(=O)O)C(=O)O)C(=O)N1CCC[C@H]1C(=O)N[C@@H](CCC(=O)O)C(=O)N[C@@H](C)C(=O)N1CCC[C@H]1C(=O)N[C@@H](C)C(=O)N[C@@H](CO)C(=O)N1CCC[C@H]1C(=O)N[C@@H](CCC(=O)O)C(=O)N[C@@H](CCC(=O)O)C(=O)N[C@@H](CC(C)C)C(=O)N[C@@H](CCC(N)=O)C(=O)N[C@@H](CCCNC(=N)N)C(=O)N[C@@H](Cc1ccc(O)cc1)C(=O)N[C@@H](Cc1ccc(O)cc1)C(=O)N[C@H](C(=O)N[C@@H](CCC(=O)O)C(=O)N[C@@H](CC(C)C)C(=O)N[C@@H](CCCNC(=N)N)C(=O)N[C@@H](Cc1c[nH]cn1)C(=O)N[C@@H](Cc1ccc(O)cc1)C(=O)N[C@@H](Cc1ccc(O)cc1)C(=O)N[C@@H](CC(N)=O)C(=O)N[C@@H](Cc1c[nH]c2ccccc12)C(=O)N[C@@H](CC(C)C)C(=O)N[C@H](C(=O)N[C@@H](CCCNC(=N)N)C(=O)N[C@@H](CCC(N)=O)C(=O)N[C@@H](CCCNC(=N)N)C(=O)N[C@@H](Cc1ccc(O)cc1)C(N)=O)[C@@H](C)O)C(C)C [Compound 29, N{alpha-4}-(3-methylbutanoyl)-N{epsilon-7}-[2-(2-{2-[2-(2-{2-[(4S)-4-carboxy-4-(17-carboxyheptadecanamido)butanamido]ethoxy}ethoxy)acetamido]ethoxy}ethoxy)acetamido]-[4A,7K,9E,10A,11P,18Q,22V,23E,28Y,30W,31L]hPYY (4-36)] (Isovaleryl-APEK([AEEA-AEEA-γGlu-C18 diacid])PEAPASPEELQRYYVELRHYYNWLTRQRY-NH2) | 0.29 | 4.6 | 3.8 | 4.4 | 2.3 | –
CC[C@H](C)[C@H](NC(=O)[C@H](CCC(=O)O)NC(=O)[C@H](CCC(=O)O)NC(=O)[C@@H]1CCCN1C(=O)[C@H](CO)NC(=O)[C@H](C)NC(=O)[C@H](CC(=O)O)NC(=O)[C@H](CCC(=O)O)NC(=O)[C@H](CCC(=O)O)NC(=O)[C@@H]1CCCN1C(=O)[C@H](CCCCNC(=O)COCCOCCNC(=O)COCCOCCNC(=O)CC[C@H](NC(=O)CCCCCCCCCCCCCCCCC(=O)O)C(=O)O)NC(=O)[C@H](CCC(=O)O)NC(=O)[C@@H]1CCCN1C(=O)[C@H](C)NC(=O)CC(C)C)C(=O)N[C@@H](CCC(N)=O)C(=O)N[C@@H](CCCNC(=N)N)C(=O)N[C@@H](Cc1ccc(O)cc1)C(=O)N[C@@H](Cc1ccc(O)cc1)C(=O)N[C@H](C(=O)N[C@@H](CO)C(=O)N[C@@H](CC(C)C)C(=O)N[C@@H](CCCNC(=N)N)C(=O)N[C@@H](Cc1c[nH]cn1)C(=O)N[C@@H](Cc1ccc(O)cc1)C(=O)N[C@@H](Cc1ccc(O)cc1)C(=O)N[C@@H](CC(N)=O)C(=O)N[C@@H](Cc1c[nH]c2ccccc12)C(=O)N[C@@H](CC(C)C)C(=O)N[C@H](C(=O)N[C@@H](CCCNC(=N)N)C(=O)N[C@@H](CCC(N)=O)C(=O)N[C@@H](CCCNC(=N)N)C(=O)N[C@@H](Cc1ccc(O)cc1)C(N)=O)[C@@H](C)O)C(C)C [Compound 84, N{alpha-4}-(3-methylbutanoyl)-N{epsilon-7}-[2-(2-{2-[2-(2-{2-[(4S)-4-carboxy-4-(17-carboxyheptadecanamido)butanamido]ethoxy}ethoxy)acetamido]ethoxy}ethoxy)acetamido]-[4A,7K,9E,17I,18Q,22V,28Y,30W,31L]hPYY (4-36)] | 1.19 | 3.5 | 6.6 | – | – | –
CC[C@H](C)[C@H](NC(=O)[C@H](CCC(=O)O)NC(=O)[C@H](CCC(=O)O)NC(=O)[C@@H]1CCCN1C(=O)[C@H](CO)NC(=O)[C@H](C)NC(=O)[C@H](CCC(=O)O)NC(=O)[C@H](CCC(=O)O)NC(=O)[C@H](CCC(=O)O)NC(=O)[C@@H]1CCCN1C(=O)[C@H](CCCCNC(=O)COCCOCCNC(=O)COCCOCCNC(=O)CC[C@H](NC(=O)CCCCCCCCCCCCCCCCC(=O)O)C(=O)O)NC(=O)[C@H](CCC(=O)O)NC(=O)[C@@H]1CCCN1C(=O)[C@H](C)NC(=O)CC(C)C)C(=O)N[C@@H](CCC(N)=O)C(=O)N[C@@H](CCCNC(=N)N)C(=O)N[C@@H](Cc1ccc(O)cc1)C(=O)N[C@@H](Cc1ccc(O)cc1)C(=O)N[C@H](C(=O)N[C@@H](CO)C(=O)N[C@@H](CC(C)C)C(=O)N[C@@H](CCCNC(=N)N)C(=O)N[C@@H](Cc1c[nH]cn1)C(=O)N[C@@H](Cc1ccc(O)cc1)C(=O)N[C@@H](Cc1ccc(O)cc1)C(=O)N[C@@H](CC(N)=O)C(=O)N[C@@H](Cc1c[nH]c2ccccc12)C(=O)N[C@@H](CC(C)C)C(=O)N[C@H](C(=O)N[C@@H](CCCNC(=N)N)C(=O)N[C@@H](CCC(N)=O)C(=O)N[C@@H](CCCNC(=N)N)C(=O)N[C@@H](Cc1ccc(O)cc1)C(N)=O)[C@@H](C)O)C(C)C [Compound 241, N{alpha-4}-(3-methylbutanoyl)-N{epsilon-7}-[2-(2-{2-[2-(2-{2-[(4S)-4-carboxy-4-(17-carboxyheptadecanamido)butanamido]ethoxy}ethoxy)acetamido]ethoxy}ethoxy)acetamido]-[4A,7K,9E,11E,17I,18Q,22V,28Y,30W,31L]hPYY (4-36)] | 2.95 | – | – | – | – | 45
CC(C)CC(=O)N[C@@H](C)C(=O)N1CCC[C@H]1C(=O)N[C@@H](CCC(=O)O)C(=O)N[C@@H](CCCCNC(=O)COCCOCCNC(=O)COCCOCCNC(=O)CC[C@H](NC(=O)CCCCCCCCCCCCCCCCC(=O)O)C(=O)O)C(=O)N1CCC[C@H]1C(=O)N[C@@H](CCC(=O)O)C(=O)N[C@@H](CCC(=O)O)C(=O)N[C@@H](CC(=O)O)C(=O)N[C@@H](C)C(=O)N[C@@H](CCC(=O)O)C(=O)N1CCC[C@H]1C(=O)N[C@@H](C)C(=O)N[C@@H](CCC(=O)O)C(=O)N[C@@H](CC(C)C)C(=O)N[C@@H](CCC(N)=O)C(=O)N[C@@H](CCCNC(=N)N)C(=O)N[C@@H](Cc1ccc(O)cc1)C(=O)N[C@@H](Cc1ccc(O)cc1)C(=O)N[C@H](C(=O)N[C@@H](CO)C(=O)N[C@@H](CC(C)C)C(=O)N[C@@H](CCCNC(=N)N)C(=O)N[C@@H](Cc1c[nH]cn1)C(=O)N[C@@H](Cc1ccc(O)cc1)C(=O)N[C@@H](Cc1ccc(O)cc1)C(=O)N[C@@H](CC(N)=O)C(=O)N[C@@H](Cc1c[nH]c2ccccc12)C(=O)N[C@@H](CC(C)C)C(=O)N[C@H](C(=O)N[C@@H](CCCNC(=N)N)C(=O)N[C@@H](CCC(N)=O)C(=O)N[C@@H](CCCNC(=N)N)C(=O)N[C@@H](Cc1ccc(O)cc1)C(N)=O)[C@@H](C)O)C(C)C [Compound 244, N{alpha-4}-(3-methylbutanoyl)-N{epsilon-7}-[2-(2-{2-[2-(2-{2-[(4S)-4-carboxy-4-(17-carboxyheptadecanamido)butanamido]ethoxy}ethoxy)acetamido]ethoxy}ethoxy)acetamido]-[4A,7K,9E,13E,15A,18Q,22V,28Y,30W,31L]hPYY (4-36)] | 1.84 | – | – | – | – | 49

— patent US12559529B2, “NPY2 receptor agonists” (Boehringer Ingelheim International GmbH, priority 2019, dated 2026)
